From ChEMBL document CHEMBL1955743, “Potent inhibitors of LpxC for the treatment of Gram-negative infections” (J Med Chem, 2012)
Converted amounts (≈) assume the structure as drawn.

Tests used:
[1] = molecular target: T1, UDP-3-O-acyl-N-acetylglucosamine deacetylase (Pseudomonas aeruginosa (strain ATCC 15692 / PAO1 / 1C / PRS 101 / LMG12228), UniProt P47205); experiment: Inhibition of Pseudomonas aeruginosa LpxC using UDP-3-O-(R-hydroxydecanoyl)-N-acetylglucosamine incubated for 30 mins prior to substrate addition measured after 60 mins by mass spectrophotometry
T1 sequence (P47205 whole entry): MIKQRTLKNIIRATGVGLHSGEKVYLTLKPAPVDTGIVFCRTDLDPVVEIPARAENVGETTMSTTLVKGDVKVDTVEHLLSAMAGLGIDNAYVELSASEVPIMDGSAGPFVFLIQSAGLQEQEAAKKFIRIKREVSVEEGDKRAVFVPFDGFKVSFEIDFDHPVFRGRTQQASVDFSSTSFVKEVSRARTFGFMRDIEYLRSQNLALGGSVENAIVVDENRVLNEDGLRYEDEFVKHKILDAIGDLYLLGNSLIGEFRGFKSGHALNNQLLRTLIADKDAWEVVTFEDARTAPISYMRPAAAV

Pseudomonas aeruginosa [2] = experiment: Antibacterial activity against Pseudomonas aeruginosa PAO1 after 16 to 20 hrs by broth microdilution method; assay type: functional
Staphylococcus aureus = experiment: Antibacterial activity against Staphylococcus aureus ATCC 29213 after 16 to 20 hrs by broth microdilution method; assay type: functional
Pseudomonas aeruginosa [3] = experiment: Antibacterial activity against Pseudomonas aeruginosa after 16 to 20 hrs by broth microdilution method; assay type: functional
Klebsiella pneumoniae = experiment: Antibacterial activity against Klebsiella pneumoniae after 16 to 20 hrs by broth microdilution method; assay type: functional
Escherichia coli = experiment: Antibacterial activity against Escherichia coli after 16 to 20 hrs by broth microdilution method; assay type: functional
Klebsiella aerogenes = experiment: Antibacterial activity against Enterobacter aerogenes after 16 to 20 hrs by broth microdilution method; assay type: functional
Citrobacter freundii = experiment: Antibacterial activity against Citrobacter freundii after 16 to 20 hrs by broth microdilution method; assay type: functional
Acinetobacter baumannii = experiment: Antibacterial activity against Acinetobacter baumannii after 16 to 20 hrs by broth microdilution method; assay type: functional
[4] = Clearance in rat at 10 mg/kg, iv; assay type: ADME, organism-based; parameters: dose 10 mg/kg, route intravenous; details: in vivo
[5] = Volume of distribution at steady state in rat at 10 mg/kg, iv; assay type: ADME, organism-based; parameters: dose 10 mg/kg, route intravenous; details: in vivo, read-out: Vdss
[6] = AUC in rat at 10 mg/kg, iv; assay type: ADME, organism-based; parameters: dose 10 mg/kg, route intravenous; details: plasma
[7] = Half life in rat at 10 mg/kg, iv; assay type: ADME, organism-based; parameters: dose 10 mg/kg, route intravenous; details: in vivo
Pseudomonas aeruginosa [8] = experiment: Antibacterial activity against Pseudomonas aeruginosa clinical isolates after 16 to 20 hrs by broth microdilution method; assay type: functional

Molecule | IC50 [1] [nM] | MIC (Pseudomonas aeruginosa [2]) [µg/mL] | MIC (Staphylococcus aureus) [µg/mL] | MIC90 (Pseudomonas aeruginosa [3]) [µg/mL] | MIC90 (Klebsiella pneumoniae) [µg/mL] | MIC90 (Escherichia coli) [µg/mL] | MIC90 (Klebsiella aerogenes) [µg/mL] | MIC90 (Acinetobacter baumannii) [µg/mL] | other results
CC(CCc1ccc(OC2CCCC2)cc1)(C(=O)NO)S(C)(=O)=O (racemic) | 10.1 | 4 (≈ 11.3 µM) | 64 (≈ 180 µM) |  |  |  |  |  | 
CC(CCc1ccc(OCc2ccccc2)cc1)(C(=O)NO)S(C)(=O)=O (racemic) | 5.16 | 2 (≈ 5.3 µM) | > 64 |  |  |  |  |  | 
CC(C)c1cccc(-c2ccc(CC[C@](C)(C(=O)NO)S(C)(=O)=O)cc2)c1 | 6.78 | 8 (≈ 20.5 µM) | 32 (≈ 82.2 µM) |  |  |  |  |  | 
CC(CCc1ccc(-c2ccc(OCCCN)cc2)cc1)(C(=O)NO)S(C)(=O)=O (racemic) | 12.7 | 2 (≈ 4.76 µM) | > 64 |  |  |  |  |  | 
C[C@@](CCc1ccc(-c2ccc3c(c2)OCO3)cc1)(C(=O)NO)S(C)(=O)=O | 1.2 | 0.125 (≈ 0.319 µM) | > 64 | 1 (≈ 2.55 µM) | 4 (≈ 10.2 µM) | 0.5 (≈ 1.28 µM) | 1 (≈ 2.55 µM) | > 64 | MIC90 (Citrobacter freundii): 2 µg/mL (≈ 5.11 µM)
C[C@@](CCc1ccc(-c2cccnc2)cc1)(C(=O)NO)S(C)(=O)=O | 29.7 | 4 (≈ 11.5 µM) | > 64 |  |  |  |  |  | 
C[C@@](CCc1ccc(-c2ccc(OCCCN3CCOCC3)cc2)cc1)(C(=O)NO)S(C)(=O)=O |  | 2 (≈ 4.08 µM) | > 64 | 4 (≈ 8.15 µM) | 4 (≈ 8.15 µM) | 0.5 (≈ 1.02 µM) | 1 (≈ 2.04 µM) | > 64 | MIC90 (Citrobacter freundii): 1 µg/mL (≈ 2.04 µM)
C[C@@](CCc1ccc(-c2ccc(O)cc2)cc1)(C(=O)NO)S(C)(=O)=O | 3.68 | 0.5 (≈ 1.38 µM) | > 64 | 2 (≈ 5.5 µM) | 16 (≈ 44 µM) | 4 (≈ 11 µM) | 16 (≈ 44 µM) | > 64 | MIC90 (Citrobacter freundii): 8 µg/mL (≈ 22 µM); clearance [4]: 65 mL/min/kg; Vd [5]: 2.6 L/kg; AUC [6]: 2500 ng·h/mL; half-life [7]: 1.4 h; MIC50 (Pseudomonas aeruginosa [8]): 1 µg/mL (≈ 2.75 µM); MIC90 (Pseudomonas aeruginosa [8]): 4 µg/mL (≈ 11 µM)
CC(CSc1ccc(-c2ccccc2)cc1)(C(=O)NO)S(C)(=O)=O (racemic) | 9.04 | 2 (≈ 5.47 µM) | 64 (≈ 175 µM) |  |  |  |  |  | 
C[C@H]1[C@H](NC(=O)/C(=N\OC(C)(C)C(=O)O)c2csc(N)n2)C(=O)N1S(=O)(=O)O [AZTREONAM] |  |  |  | 64 (≈ 147 µM) | > 64 | > 64 | 32 (≈ 73.5 µM) | 32 (≈ 73.5 µM) | MIC90 (Citrobacter freundii): > 64 µg/mL
O=C(O)c1cn(C2CC2)c2cc(N3CCNCC3)c(F)cc2c1=O [CIPROFLOXACIN] |  |  | 0.25 (≈ 0.754 µM) | 64 (≈ 193 µM) | 64 (≈ 193 µM) | > 64 | 1 (≈ 3.02 µM) | 64 (≈ 193 µM) | 
CS(=O)(=O)C(CCc1ccc(-c2ccccc2)cc1)C(=O)NO (racemic) | 13.8 | 1 (≈ 3 µM) | > 64 |  |  |  |  |  | 
CC(CCc1ccc(OCc2ccncc2)cc1)(C(=O)NO)S(C)(=O)=O (racemic) | 21.6 | 4 (≈ 10.6 µM) | > 64 |  |  |  |  |  | 
NCC[C@H](O)C(=O)N[C@@H]1C[C@H](N)[C@@H](O[C@H]2O[C@H](CN)[C@@H](O)[C@H](O)[C@H]2O)[C@H](O)[C@H]1O[C@H]1O[C@H](CO)[C@@H](O)[C@H](N)[C@H]1O [AMIKACIN] |  |  |  |  |  |  |  |  | MIC50 (Pseudomonas aeruginosa [8]): 4 µg/mL (≈ 6.83 µM); MIC90 (Pseudomonas aeruginosa [8]): 32 µg/mL (≈ 54.6 µM)
C[C@@H](O)[C@H](NC(=O)c1ccc(C#Cc2ccc(CN3CCOCC3)cc2)cc1)C(=O)NO |  | 1 (≈ 2.29 µM) | > 64 | 4 (≈ 9.14 µM) | 2 (≈ 4.57 µM) | 0.25 (≈ 0.571 µM) | 0.5 (≈ 1.14 µM) | > 64 | MIC90 (Citrobacter freundii): 0.5 µg/mL (≈ 1.14 µM)
COc1ccccc1-c1ccc(CC[C@](C)(C(=O)NO)S(C)(=O)=O)cc1 | 7.04 | 1 (≈ 2.65 µM) | > 64 |  |  |  |  |  | 
POLYMYXIN B |  |  |  |  |  |  |  |  | MIC50 (Pseudomonas aeruginosa [8]): 0.5 µg/mL; MIC90 (Pseudomonas aeruginosa [8]): 1 µg/mL
C[C@@](CCc1ccc(-c2cccc(Cl)c2)cc1)(C(=O)NO)S(C)(=O)=O | 3.54 | 0.5 (≈ 1.31 µM) | 32 (≈ 83.8 µM) |  |  |  |  |  | 
CC(COc1ccc(-c2ccccc2)cc1)(C(=O)NO)S(C)(=O)=O (racemic) | 31.4 | 4 (≈ 11.4 µM) | > 64 |  |  |  |  |  | 
C[C@](CCc1ccc(-c2ccccc2)cc1)(C(=O)NO)S(C)(=O)=O |  | > 64 | > 64 |  |  |  |  |  | 
C[C@@](CCc1ccc(-c2ccc(F)cc2)cc1)(C(=O)NO)S(C)(=O)=O | 1.74 | 0.25 (≈ 0.684 µM) | > 64 | 1 (≈ 2.74 µM) | 8 (≈ 21.9 µM) | 1 (≈ 2.74 µM) | 2 (≈ 5.47 µM) | 32 (≈ 87.6 µM) | MIC90 (Citrobacter freundii): 4 µg/mL (≈ 10.9 µM)
C[C@@](CCc1ccc(-c2ccc(C(N)=O)cc2)cc1)(C(=O)NO)S(C)(=O)=O | < 2.47 | 2 (≈ 5.12 µM) | > 64 |  |  |  |  |  | 
